Experimental data: patent publication US20040063790A1, “Methods for inhibition of angiogenesis” (The Scripps Research Institute, priority 1996, published 2004)
One block for each molecule: values may come before it. Where a SMILES comes first, the peptide text is derived from it. [ ]: non-standard residue; d: D form.

Legend:
[1] = system: bFGF-induced angiogenesis; experiment: CAM assay, growth factor-induced angiogenesis, topical application; assay type: in vivo, chick; settings: 80 μg peptide topically at 0, 24 and 48 hrs; viewed at 72 hours
Description: J. Pathol., 79:597 (1975). CAMs were prepared from chick embryos for subsequent induction of angiogenesis and inhibition thereof as described in Examples 4 and 5, respectively. Ten day old chick embryos were obtained from McIntyre Poultry (Lakeside, Calif.) and incubated at 37° C. with 60% humidity. A small hole was made through the shell at the end of the egg directly over the air sac with the use of a small crafts drill (Dremel, Division of Emerson Electric Co. Racine Wis.). A second hole was drilled on the broad side of the egg in a region devoid of embryonic blood vessels determined previously by candling the egg. […]
Angiogenesis was induced by placing a 5 millimeter (mm)×5 mm Whatman filter disk (Whatman Filter paper No.1) saturated with Hanks Balanced Salt Solution (HBSS, GIBCO, Grand Island, N.Y.) or HBSS containing 150 nanograms/milliliter (ng/ml) recombinant basic fibroblast growth factor (bFGF) (Genzyme, Cambridge, Mass.) on the CAM of a 10-day chick embryo in a region devoid of blood vessels and the windows were latter sealed with tape. […] For assays where inhibition of angiogenesis ws evaluated with intravenous injections of antagonists, angiogenesis was first induced with 1-2 μg/ml bFGF in fibroblast growth medium. Angiogenesis was monitored by photomicroscopy after 72 hours. […]
Quantification was performed in a double blind manner by at least two independent observers. […]

[2] = system: tumor-induced angiogenesis; experiment: CAM assay, tumor-induced angiogenesis, intravenous application; assay type: in vivo, chick; settings: intravenous injection
Description: Angiogenesis was induced in the CAM assay system by direct apposition of a tumor fragment on the CAM. Preparation of the chick embryo CAM was identical to the procedure described above. Instead of a filter paper disk, a 50 milligram (mg) to 55 mg in weight fragment of one of human melanoma tumor M21-L, human lung carcinoma tumor UCLAP-3, human pancreatic carcinoma cell line FG (Cheresh et al., Cell 58:945-953, 1989), or human laryngeal carcinoma cell line HEp3, all of which are αvβ3 negative tumors, was placed on the CAM in an area originally devoid of blood vessels.
The M21-L human melanoma cell line, UCLAP-3 human lung carcinoma cell line, FG pancreatic carcinoma cell line, or HEp3 human laryngeal carcinoma cell line, all αvβ3 negative, were used to grow the solid human tumors on the CAMs of chick embryos. A single cell suspension of 8×10^6 M21-L, UCLAP-3, and FB or 5×10^5 HEp3 cells was first applied to the CAMs in a total volume of 30 μl of sterile HBSS. The windows were sealed with tape and the embryos were incubated for 7 days to allow growth of human tumor lesions. At the end of 7 days, now a 17-day embryo, the tumors were resected from the CAMs and trimmed free of surrounding CAM tissue. […]
The effects of peptide exposure to tumor-induced vasculature in the CAM assay system was also assessed. […]

[3] = molecular target: T1, αIIbβ3 (Homo sapiens, UniProt P05106+P08514); experiment: Ligand-receptor binding assay, immobilized αIIbβ3; settings: radiolabeled fibrinogen; average of duplicate data points ± standard deviation; read-out: αIIbβ3 (IC50 μM)
T1 construct: selected purified integrins were separately immobilized in Titertek microtiter wells
T1 sequence (P08514 32-887 limits assumed): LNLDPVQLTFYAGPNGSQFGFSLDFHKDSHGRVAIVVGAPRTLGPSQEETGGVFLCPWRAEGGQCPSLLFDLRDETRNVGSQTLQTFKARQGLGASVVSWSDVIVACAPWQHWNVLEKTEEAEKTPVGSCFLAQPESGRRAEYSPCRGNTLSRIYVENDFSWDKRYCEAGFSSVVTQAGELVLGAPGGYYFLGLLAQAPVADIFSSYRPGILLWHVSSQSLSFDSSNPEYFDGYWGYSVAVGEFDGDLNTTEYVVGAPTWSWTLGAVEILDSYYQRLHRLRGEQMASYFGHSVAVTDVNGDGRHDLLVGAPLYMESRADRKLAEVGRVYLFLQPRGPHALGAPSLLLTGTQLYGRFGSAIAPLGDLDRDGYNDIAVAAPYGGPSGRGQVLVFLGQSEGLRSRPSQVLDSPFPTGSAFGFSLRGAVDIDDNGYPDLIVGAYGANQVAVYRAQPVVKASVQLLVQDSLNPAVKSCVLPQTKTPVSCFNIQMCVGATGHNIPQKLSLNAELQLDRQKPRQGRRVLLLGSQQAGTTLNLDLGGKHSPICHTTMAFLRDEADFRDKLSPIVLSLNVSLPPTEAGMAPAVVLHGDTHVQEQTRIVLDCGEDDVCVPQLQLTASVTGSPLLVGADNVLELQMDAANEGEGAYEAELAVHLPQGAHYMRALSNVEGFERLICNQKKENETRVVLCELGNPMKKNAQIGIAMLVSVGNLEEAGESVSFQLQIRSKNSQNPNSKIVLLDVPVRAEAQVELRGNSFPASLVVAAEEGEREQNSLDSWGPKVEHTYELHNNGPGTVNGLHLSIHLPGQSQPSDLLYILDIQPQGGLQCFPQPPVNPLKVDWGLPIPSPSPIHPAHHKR
T1 sequence (P08514 891-1039 partner limits assumed): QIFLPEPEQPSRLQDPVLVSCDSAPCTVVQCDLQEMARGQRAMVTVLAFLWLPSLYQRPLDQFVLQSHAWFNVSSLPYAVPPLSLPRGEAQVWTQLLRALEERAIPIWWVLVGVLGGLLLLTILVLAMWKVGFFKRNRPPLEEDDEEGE
T1 sequence (P05106 27-788): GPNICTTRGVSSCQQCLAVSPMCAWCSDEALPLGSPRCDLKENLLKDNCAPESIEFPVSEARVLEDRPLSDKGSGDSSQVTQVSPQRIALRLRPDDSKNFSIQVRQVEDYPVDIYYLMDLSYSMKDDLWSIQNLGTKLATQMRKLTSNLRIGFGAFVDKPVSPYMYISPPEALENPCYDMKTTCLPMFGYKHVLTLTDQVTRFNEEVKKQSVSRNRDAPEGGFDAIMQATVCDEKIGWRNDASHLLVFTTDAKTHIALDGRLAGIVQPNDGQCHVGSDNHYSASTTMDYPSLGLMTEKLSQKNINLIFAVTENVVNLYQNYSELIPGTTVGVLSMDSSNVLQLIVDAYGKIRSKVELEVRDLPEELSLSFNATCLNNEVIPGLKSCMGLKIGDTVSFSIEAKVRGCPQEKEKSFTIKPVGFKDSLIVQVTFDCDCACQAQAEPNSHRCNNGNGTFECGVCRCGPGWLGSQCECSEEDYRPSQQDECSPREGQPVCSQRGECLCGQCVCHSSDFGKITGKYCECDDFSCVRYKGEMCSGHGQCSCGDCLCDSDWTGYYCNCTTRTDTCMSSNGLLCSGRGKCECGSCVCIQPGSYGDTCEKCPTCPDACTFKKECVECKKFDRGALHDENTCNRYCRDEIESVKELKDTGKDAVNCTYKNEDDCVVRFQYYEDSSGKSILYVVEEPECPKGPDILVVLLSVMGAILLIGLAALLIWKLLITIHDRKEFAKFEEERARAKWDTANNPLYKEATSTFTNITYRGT
Source text: (§1) Herein described is a method of identifying antagonists in a ligand-receptor binding assay in which the receptor is immobilized to a solid support and the ligand and antagonist are soluble. Also described is a ligand-receptor binding assay in which the ligand is immobilized to a solid support and the receptor and antagonists are soluble.
(§2) Briefly, selected purified integrins were separately immobilized in Titertek microtiter wells at a coating concentration of 50 nanograms (ng) per well. The purification of the receptors used in the ligand-receptor binding assays are well known in the art and are readily obtainable with methods familiar to one of ordinary skill in the art. After incubation for 18 hours at 4° C., nonspecific binding sites on the plate were blocked with 10 milligrams/milliliter (mg/ml) of bovine serum albumin (BSA) in Tris-buffered saline. […] Radiolabeled ligands were used at concentrations of 1 nM and binding was challenged separately with unlabeled synthetic peptides.
(§3) Following a three hour incubation, free ligand was removed by washing and bound ligand was detected by gamma counting. […] The IC50 data in micromoles (IC50 μM) are expressed as the average of duplicate data points±the standard deviation as shown in Table 2.

[4] = molecular target: T2, αvβ3 (Homo sapiens, UniProt P05106+P06756); experiment: Ligand-receptor binding assay, immobilized αvβ3
T2 construct: selected purified integrins were separately immobilized in Titertek microtiter wells
T2 sequence (P06756 31-889 limits assumed): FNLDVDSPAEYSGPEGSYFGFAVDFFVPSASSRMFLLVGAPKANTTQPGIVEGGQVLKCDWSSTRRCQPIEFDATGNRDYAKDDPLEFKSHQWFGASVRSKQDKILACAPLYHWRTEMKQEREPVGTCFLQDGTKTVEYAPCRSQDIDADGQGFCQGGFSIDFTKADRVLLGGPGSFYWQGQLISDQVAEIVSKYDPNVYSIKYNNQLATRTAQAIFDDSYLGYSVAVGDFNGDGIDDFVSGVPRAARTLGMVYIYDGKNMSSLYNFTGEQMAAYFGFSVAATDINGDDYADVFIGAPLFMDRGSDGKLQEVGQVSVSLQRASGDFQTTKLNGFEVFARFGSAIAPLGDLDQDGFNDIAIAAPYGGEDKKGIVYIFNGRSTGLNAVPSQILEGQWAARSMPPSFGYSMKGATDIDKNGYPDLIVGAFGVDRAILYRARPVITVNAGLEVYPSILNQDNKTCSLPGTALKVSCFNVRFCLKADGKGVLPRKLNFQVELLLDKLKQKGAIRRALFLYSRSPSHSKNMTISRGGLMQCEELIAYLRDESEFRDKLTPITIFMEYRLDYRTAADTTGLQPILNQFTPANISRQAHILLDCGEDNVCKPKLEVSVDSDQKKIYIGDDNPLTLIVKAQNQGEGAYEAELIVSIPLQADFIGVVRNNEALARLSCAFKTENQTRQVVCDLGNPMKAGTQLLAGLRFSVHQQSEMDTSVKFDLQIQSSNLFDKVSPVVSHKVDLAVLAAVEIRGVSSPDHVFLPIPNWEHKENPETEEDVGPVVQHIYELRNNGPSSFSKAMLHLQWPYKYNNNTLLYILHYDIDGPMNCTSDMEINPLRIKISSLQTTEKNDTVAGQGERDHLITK
T2 sequence (P06756 891-1048 partner limits assumed): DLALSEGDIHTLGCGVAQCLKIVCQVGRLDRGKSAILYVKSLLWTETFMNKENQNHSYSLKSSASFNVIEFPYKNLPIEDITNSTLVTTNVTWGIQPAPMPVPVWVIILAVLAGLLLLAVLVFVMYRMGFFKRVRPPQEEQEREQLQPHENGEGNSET
T2 sequence (P05106 27-788): as the sequence (P05106 27-788) above
Source text: as §1, §2, §3

[5] = molecular target: αvβ3 integrin (Homo sapiens, UniProt P05106+P06756); settings: Pfaff et al. 1994; not to the αIIbβ3 or α5β1 integrins; cited from earlier work
Sequence of αvβ3 integrin (P06756 31-889 limits assumed): as the sequence (P06756 31-889 limits assumed) above
Sequence of αvβ3 integrin (P06756 891-1048 partner limits assumed): as the sequence (P06756 891-1048 partner limits assumed) above
Sequence of αvβ3 integrin (P05106 27-788): as the sequence (P05106 27-788) above

[6] = system: retinal neovascularization; settings: Hammes et al., Nature Med. 1996; cited from earlier work
[7] = system: M21-L melanoma tumor; experiment: In vivo chimeric mouse:human assay; set-up: species or system SCID mouse; settings: intravenous, FIG. 18
Description: An in vivo chimeric mouse:human model was generated by replacing a portion of skin from a SCID mouse with human neonatal foreskin (FIG. 4). After the skin graft was established, the human foreskin was inoculated with carcinoma cells. After a measurable tumor was established, either an αvβ3 antagonist or PBS was injected into the mouse tail vein. Following a 2-3 week period, the tumor was excised and analyzed by weight and histology.
The in vivo chimeric mouse:human model is prepared essentially as described in Yan, et al., J. Clin. Invest., 91:986-996 (1993). Briefly, a 2 cm^2 square area of skin was surgically removed from a SCID mouse (6-8 weeks of age) and replaced with a human foreskin. The mouse was anesthetized and the hair removed from a 5 cm^2 area on each side of the lateral abdominal region by shaving. Two circular graft beds of 2 cm^2 were prepared by removing the full thickness of skin down to the fascia. Full thickness human skin grafts of the same size derived from human neonatal foreskin were placed onto the wound beds and sutured into place. […]
In a procedure similar to that described above for monoclonal antibodies, peptide antagonists of αvβ3 were injected intravenously into the tail vein of SCID mice having measurable M21-L tumors. […] The mean volume and weight of resected tumors following treatment were determined with the results respectively shown in FIGS. 19A and 19B.

Molecule: CC(C)[C@@H]1NC(=O)[C@@H](Cc2ccccc2)NC(=O)[C@H](CC(=O)O)NC(=O)CNC(=O)[C@H](CCCNC(=N)N)NC1=O [Peptide 62184, cyclo (RGDfV)]
effect on bFGF-induced blood vessel formation [1]: formation of blood vessels was inhibited
inhibition of tumor-induced blood vessel formation [2]: demonstrated to inhibit angiogenesis

IC50 [3]: 100 ± 0.001 µM
IC50 ([4]; radiolabeled fibrinogen, average of duplicate data points ± standard deviation, read-out: αvβ3 (IC50 μM)): 57.5 ± 7.84 µM
Molecule: CC(C)[C@@H]1NC(=O)[C@H](Cc2ccccc2)NC(=O)[C@H](CC(=O)O)NC(=O)[C@@H](C)NC(=O)[C@H](CCCNC(=N)N)NC1=O [Peptide 62186, cyclo (RaDFV)] (cyclo(R[dA]DFV))
effect on bFGF-induced blood vessel formation [1]: remained undisturbed
preference of inhibition of fibrinogen binding, αvβ3 versus αIIbβ3 ([4]; comparison of half-maximal concentrations of Table 2): either not as effective in blocking fibrinogen binding to αvβ3 or exhibited preferential inhibition of fibrinogen binding to αIIbβ3

Molecule: cyclic RGDfV
inhibition of fibrinogen binding to integrins [5]: specifically inhibited binding of fibrinogen to the αvβ3 integrin
inhibition of retinal neovascularization [6]: inhibited retinal neovascularization

B1: LM609: monoclonal antibody specific for αvβ3 (anti-αvβ3) (antibody, V domains shown)
VH: EVQLEESGGGLVKPGGSLKLSCAASGFAFSSYDMSWVRQIPEKRLEWVAKVSSGGGSTYYLDTVQGRFTISRDNAKNTLYLQMSSLNSEDTAMYYCARHNYGSFAYWGQGTLVTVSA
VL: ELVMTQTPATLSVTPGDSVSLSCRASQSISNHLHWYQQKSHESPRLLIKYASQSISGIPSRFSGSGSGTDFTLSINSVETEDFGMYFCQQSNSWPHTFGGGTKLEIKRA
tumor volume [7]: approximately 60 mm^3
